Results: article PMC9296036, “A peptide interfering with the dimerization of oncogenic KITENIN protein and its stability suppresses colorectal tumour progression” (Clinical and Translational Medicine, 2022)
Ends that are not written are not given here.

Biological target: T1, KITENIN homodimer (Homo sapiens, UniProt Q8TAA9)
T1 construct: Lysates of 293T cells expressing full‐length KITENIN‐myc; expressed in transfected cells; host or cells: Caco2
T1 sequence (Q8TAA9 1-524): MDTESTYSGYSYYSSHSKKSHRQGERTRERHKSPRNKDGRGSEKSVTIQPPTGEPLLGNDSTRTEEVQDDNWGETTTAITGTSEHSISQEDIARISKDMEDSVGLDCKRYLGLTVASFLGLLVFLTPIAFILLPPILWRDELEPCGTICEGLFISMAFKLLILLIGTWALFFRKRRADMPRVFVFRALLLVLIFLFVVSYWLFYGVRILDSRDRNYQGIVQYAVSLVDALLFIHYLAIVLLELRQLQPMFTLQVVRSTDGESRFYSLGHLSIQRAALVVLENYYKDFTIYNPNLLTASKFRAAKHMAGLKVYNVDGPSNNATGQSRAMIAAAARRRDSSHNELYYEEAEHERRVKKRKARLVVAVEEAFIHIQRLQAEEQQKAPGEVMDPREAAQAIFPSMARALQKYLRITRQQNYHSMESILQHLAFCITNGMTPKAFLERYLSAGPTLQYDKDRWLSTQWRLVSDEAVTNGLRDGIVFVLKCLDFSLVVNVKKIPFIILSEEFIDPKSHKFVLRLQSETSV
Experiment: KITENIN homodimerization in Caco2 cells co-expressing KITENIN-V5/Myc (co-immunoprecipitation)
Format: cell-based
From the text: Antibodies against the following proteins were obtained from the indicated suppliers: Na^+/K^+ ATPase, GFP and tubulin (Santa Cruz Biotechnology); c‐Jun, p‐c‐Jun, ERK, p‐ERK, c‐MET, p‐c‐MET and GST (Cell Signaling Technology); V5, Myc (MBL); HA and β‐actin (Sigma); KITENIN (Atlas); His and RACK1, LC3, p62, Myo10, and eukaryotic elongation factor 2 (eEF2) (Abcam). They were used with appropriate secondary antibodies (Thermo). For transient transfection analyses, Caco2, HCT116 and 293T cells were transfected with various plasmids and harvested for immunoblot analysis 48 h after transfection. For most assays using stable cell lines, mixed polyclonal cells were used to exclude clonal variation. […]
FIGURE 2 KAI1 C‐terminal interacting tetraspanin (KITENIN) dimerization‐interfering peptide (KDIP) suppresses KITENIN‐induced enhanced cell invasion through the inhibition of the homodimerization of KITENIN. […] After 48 h of treatment, KITENIN transcripts in cells were analysed by the 2^−ΔΔ ^CT method using Q‐PCR. […] Caco2 cells were co‐transfected with KITENIN‐V5/Myc and treated with or without KDIP or scrambled peptide (scr) and were immunoprecipitated with anti‐V5 antibody and detected by indicated antibodies. Numerals indicated a quantification of the MYC bands normalized to the corresponding V5 bands (left panel). […] Numerals indicated a quantification of the bands observed (left panel). […]

inhibition of dimerization and cell invasion caused by KITENIN overexpression, rank among the 7 peptides of the 449-487 region (Caco2 cells co-expressing KITENIN-Myc and KITENIN-V5, co-IP and invasion assay): most effective
homodimerization of KITENIN in cells (in words) (Caco2 cells co-transfected with KITENIN-V5/Myc, co-IP): reduced
Sequence: YARVRRRGPRRWRLVSDEAV [KDIP]
